Experimental data as given in patent US9592223B2, “Small molecule inhibitors of MALT1” (Cornell University, priority 2012, dated 2017).
Entries after “also recorded” stand apart in the source; their conditions may differ.

Assays:
[1] = system: primary human non-GCB DLBCL cells; test: Primary human DLBCL cells ex vivo, non-GCB cases, Trypan blue; type: cell-based; conditions: 0.8 μM, 48 hr
Procedure: After 48 hr exposure, cell number and viability were determined using Trypan blue.
Patient de-identified tissues were obtained in accordance with the guidelines and approval of the Weill Cornell Medical College Review Board. Patient samples were processed as previously described (Cerchietti et al., 2010). Briefly, single cell suspensions from lymph node biopsies were obtained by physical disruption of tissues followed by cell density gradient separation (Fico/Lite LymphoH, Atlanta Biologicals, Lawrenceville, Ga.). Cell number and viability were determined by Trypan blue exclusion. Primary DLBCL cells were cultured in 96-well plates. Cells were grown in advanced RPMI medium with 20% FBS supplemented with antibiotics for 48 hours. […] After 48 hr of exposure, viability was determined by using Trypan blue (Sigma). All samples were normalized to their own replicate control. Statistical significance was calculated using paired T-test.

[2] = target: T1, LZ-MALT1 (Homo sapiens, UniProt Q9UDY8); test: Dose-effect and time-course of MALT1 inhibition (pre-incubation, then Ac-LRSR-AMC); type: biochemical; conditions: pre-incubation 5 to 80 minutes
T1 construct: His tag (N); made in house; host or cells: E. coli
T1 sequence (Q9UDY8 with tags, fused parts or gaps limits assumed): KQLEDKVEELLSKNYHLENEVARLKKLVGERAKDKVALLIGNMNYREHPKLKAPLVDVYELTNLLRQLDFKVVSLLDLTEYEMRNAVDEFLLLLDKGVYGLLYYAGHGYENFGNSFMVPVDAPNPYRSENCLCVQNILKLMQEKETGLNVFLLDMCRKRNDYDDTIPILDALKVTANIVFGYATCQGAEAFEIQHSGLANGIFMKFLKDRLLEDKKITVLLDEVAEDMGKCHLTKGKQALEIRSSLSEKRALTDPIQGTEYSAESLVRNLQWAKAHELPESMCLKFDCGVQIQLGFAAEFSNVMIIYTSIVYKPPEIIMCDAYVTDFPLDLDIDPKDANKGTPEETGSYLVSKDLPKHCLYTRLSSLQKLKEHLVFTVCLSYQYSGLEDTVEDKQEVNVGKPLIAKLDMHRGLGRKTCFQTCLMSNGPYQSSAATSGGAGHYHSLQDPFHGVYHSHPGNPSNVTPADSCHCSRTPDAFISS
Procedure: The reactions were monitored in a SpectraMax M5 plate reader (Molecular Devices, Sunnyvale, Calif. USA) with excitation/emission wavelength at 360/465 nm and 20 seconds intervals. Normalized percentage of inhibition was calculated with the following formula: (M(T2-T1)−N(T2-T1))/(P(T2-T1)−N(T2-T1))*100, where M(T2-T1) is the difference signal of compound at time point 200s and 0s, N(T2-T1) is the difference signal of negative control buffer only, P(T2-T1) is the difference signal of positive control Z-VRPR-FMK.

[3] = system: nuclear c-REL and p65; test: Western blots for c-REL and p65 in nuclear extracts of HBL-1 and TMD8 cells; type: cell-based, human; conditions: 24 hr, 200 nM for HBL-1 and 500 nM for TMD8
Procedure: MALT1 mediates c-REL translocation to the nucleus following BCR stimulation (Ferch et al., 2007). […] This selectivity towards c-REL had also been previously shown in MALT1 knockout mice and after MALT1 cleavage inhibition by the MALT1 blocking peptide Z-VRPR-FMK (Ferch et al., 2009; Ferch et al., 2007; Hailfinger et al., 2011).
Equal amounts of total protein (20-75 μg) were separated on sodium dodecyl sulfate-polyacrylamide gel electrophoresis (SDS-PAGE), and electrotransferred onto nitrocellulose membranes. Membranes were incubated with primary antibodies (MALT1, BCL-10, CYLD from Santa Cruz Biotechnologies, Santa Cruz, Calif.; A20 from eBioscience, San Diego, Calif.; phospho-IκB-α, IκB-α, c-REL, RELB from Cell Signaling, Danvers, Mass. and α-Tubulin from Sigma), followed by secondary antibodies conjugated to horseradish peroxidase, which were detected by chemiluminescence (Pierce, Thermo Scientific, Rockford, Ill.).

[4] = system: HBL-1 and TMD8 cells; test: Trypan blue exclusion and Annexin V+ DAPI- apoptosis over 14 days, ABC-DLBCL lines; type: cell-based, human; conditions: treated daily at GI25 and GI50, every 48 hr for 14 days
Procedure: Cell proliferation was examined using the CFSE dilution assay by flow cytometry on viable cells at 48, 72 and 96 h. […] Trypan blue exclusion and apoptosis assessed by Annexin V^+ DAPI^− flow cytometry was measured every 48 hr for a period of 14 days.
Apoptosis was assessed by AnnexinV-APC/DAPI (BD Pharmingen) staining followed by flow cytometry.

[5] = Toxicity 2: 25 mg/kg daily IP for 14 days, blood count, serum chemistry, histology; type: in vivo, mice; conditions: for ALBUMIN / ALP / ALT / AST / BASOPHILS / BUN / CALCIUM / CHLORIDE / CHOLESTEROL / CK / CREATININE / DIRECT BILIRUBIN / EOSINOPHILS / GGT / GLOBULIN / GLUCOSE / HEMATOCRIT / HEMOGLOBIN / INDIRECT BILIRUBIN / LYMPHOCYTES / MONOCYTES / NEUTROPHILS / PHOSPHORUS / PLATELETS / RBC / SODIUM / TOTAL BILIRUBIN / TOTAL PROTEIN / WBC: 25 mg/kg IP daily 14 days
Text: Brain, heart, lung, liver, kidney, bowel, spleen, thymus and bone marrow tissues were examined.

COCCOc1nc(-c2ccc(Cl)c(Cl)c2)n(-c2ccc(NC(=O)CCl)cc2)n1 [MI-2]
response of cell number and viability [1]: two of the non-GCB cases responded; also recorded: One of the non-GCB did not respond | kind of inhibition (time dependence) [2]: covalent and irreversible inhibition | percent MALT1 inhibition reached [2]: ~100% | nuclear c-REL (Western blot) [3]: clear reduction of nuclear c-REL | nuclear p65 (Western blot) [3]: did not affect p65 levels | viability and apoptosis [4]: profoundly suppressed | ALBUMIN ([5]; d14): 3.12 g/dL | ALP ([5]; d14): 83 U/L | ALT ([5]; d14): 25 U/L | AST ([5]; d14): 70 U/L | BASOPHILS ([5]; d14): 0.01 K/μL | BUN ([5]; d14): 23.4 mg/dL | CALCIUM ([5]; d14): 10.88 mg/dL | CHLORIDE ([5]; d14): 108.4 mEq/L | CHOLESTEROL ([5]; d14): 85.4 mg/dL | CK ([5]; d14): 202.8 U/L | CREATININE ([5]; d14): 0.22 mg/dL | DIRECT BILIRUBIN ([5]; d14): 0.10 mg/dL | EOSINOPHILS ([5]; d14): 0.03 K/μL | GGT ([5]; d14): 0 U/L | GLOBULIN ([5]; d14): 2.20 g/dL | GLUCOSE ([5]; d14): 313.8 mg/dL | HEMATOCRIT ([5]; d14): 40.86% | HEMOGLOBIN ([5]; d14): 12.94 g/dL | INDIRECT BILIRUBIN ([5]; d14): 0.08 mg/dL | LYMPHOCYTES ([5]; d14): 6.29 K/μL | MONOCYTES ([5]; d14): 0.32 K/μL | NEUTROPHILS ([5]; d14): 1.18 K/μL | PHOSPHORUS ([5]; d14): 9.46 mg/dL | PLATELETS ([5]; d14): 981 K/μL | RBC ([5]; d14): 8.60 M/μL | SODIUM ([5]; d14): 152.8 mEq/L | TOTAL BILIRUBIN ([5]; d14): 0.180 mg/dL | TOTAL PROTEIN ([5]; d14): 5.32 g/dL | WBC ([5]; d14): 7.83 K/μL | ALBUMIN ([5]; d24 (10-day washout)): 3.15 g/dL | ALP ([5]; d24 (10-day washout)): 100 U/L | ALT ([5]; d24 (10-day washout)): 23 U/L | AST ([5]; d24 (10-day washout)): 49.5 U/L | BASOPHILS ([5]; d24 (10-day washout)): 0.04 K/μL | BUN ([5]; d24 (10-day washout)): 27.0 mg/dL | CALCIUM ([5]; d24 (10-day washout)): 10.80 mg/dL | CHLORIDE ([5]; d24 (10-day washout)): 106.7 mEq/L | CHOLESTEROL ([5]; d24 (10-day washout)): 91.75 mg/dL | CK ([5]; d24 (10-day washout)): 119.5 U/L | CREATININE ([5]; d24 (10-day washout)): 0.20 mg/dL | DIRECT BILIRUBIN ([5]; d24 (10-day washout)): 0.10 mg/dL | EOSINOPHILS ([5]; d24 (10-day washout)): 0.11 K/μL | GGT ([5]; d24 (10-day washout)): 0 U/L | GLOBULIN ([5]; d24 (10-day washout)): 2.15 g/dL | GLUCOSE ([5]; d24 (10-day washout)): 288.5 mg/dL | HEMATOCRIT ([5]; d24 (10-day washout)): 45.02% | HEMOGLOBIN ([5]; d24 (10-day washout)): 13.55 g/dL | INDIRECT BILIRUBIN ([5]; d24 (10-day washout)): 0.07 mg/dL | LYMPHOCYTES ([5]; d24 (10-day washout)): 6.76 K/μL | MONOCYTES ([5]; d24 (10-day washout)): 0.27 K/μL | NEUTROPHILS ([5]; d24 (10-day washout)): 1.85 K/μL | PHOSPHORUS ([5]; d24 (10-day washout)): 9.65 mg/dL | PLATELETS ([5]; d24 (10-day washout)): 1275 K/μL | RBC ([5]; d24 (10-day washout)): 9.38 M/μL | SODIUM ([5]; d24 (10-day washout)): 153 mEq/L | TOTAL BILIRUBIN ([5]; d24 (10-day washout)): 0.175 mg/dL | TOTAL PROTEIN ([5]; d24 (10-day washout)): 5.30 g/dL | WBC ([5]; d24 (10-day washout)): 9.03 K/μL | bone marrow histology ([5]; daily IP 25 mg/kg over 14 days): normocellular with trilineage maturing hematopoiesis | complete peripheral blood counts, biochemistry and liver function tests ([5]; daily IP 25 mg/kg over 14 days): normal | toxic effects, weight loss, tissue damage ([5]; daily IP 25 mg/kg over 14 days, cumulative 350 mg/kg): No toxic effects or other indicators of sickness
